# In patent publication US20090088373A1, “USE OF COMPOSITIONS TO ENHANCE INNATE IMMUNE RESPONSE” (priority 2007, published 2009):
# What was measured:
# TLR2 = TLR2 gene expression by qPCR in NHEK; type: cell-based, human; conditions: for TLR2 mRNA expression (Mean): 10 nM pimecrolimus; for TLR2 mRNA expression (Means of N = 3): Example 6, 10 nM Pimecrolimus, 1 nM 1,25D3; for TLR2 gene expression (Mean): Example 8, 24 hours
# Description: (§1) To assess the effect of pimecrolimus on the innate immune response of the epidermis, cultures of normal human keratinocytes (NHEK) are stimulated with a combination of a concentration of 10 nM pimecrolimus and of 1 nM 1.25D3. Gene expression of TLR1, TLR2, TLR4, TLR6 and CD14 are evaluated by qPCR. For CD14 protein expression, a Western Blot is performed and bands are quantified by densitometry using lmagej. Vehicle treated keratinocytes serve as controls. Cathelicidin protein expression is evaluated by immunofluorescence staining.
# (§2) To assess the effect of pimecrolimus on the innate immune response of the epidermis, cultures of normal human keratinocytes (NHEK) are stimulated with a concentration of 10 nM pimecrolimus,1 nM 1.25 D3, 0.1 μg/ml TLR2/6 ligand Malp-2 or their combination. Expression of cathelicidin, CD14 and TLR2 mRNA normal human keratinocytes is measured and evaluated accordingly to the procedures as detailed in Example 2 above.
# (§3) To assess the effect of time dependent effects of pimecrolimus on the innate immune response of the epidermis, cultures of normal human keratinocytes (NHEK) are stimulated with 10 nM Pimecrolimus and low dose calciferol (1,25D3) 1 nM for different time points. mRNA expression of cathelicidin, CD14 and TLR2 is analyzed by qPCR.
# (§4) To assess the effect of calciferol on varying levels of pimecrolimus on the innate immune response of the epidermis, cultures of normal human keratinocytes (NHEK) are stimulated with 0.01 nM, 0.1 nM, 1 nM and 10 nM concentrations of pimecrolimus with or without 1 nM concentrations of calciferol for 24 hours. Expression of cathelicidin mRNA and gene expression of TLR2 is measured and evaluated accordingly to the procedures as detailed in Example 2 above.
# [1] = system: Human Beta Defensin (HBD) 2; test: HBD2 expression in normal human keratinocytes (NHEK); type: cell-based; set-up: unit not given here; conditions: Example 2
# Description: (§5) To assess the effect of pimecrolimus on the innate immune response of the epidermis, cultures of normal human keratinocytes (NHEK) are stimulated with combinations of a concentration of 10 nM pimecrolimus, 1 μg/ml TLR 2/CD14 ligand—peptidoglycan (PGN), 10 μg/ml lipoteichoic acid (LTA), 2 0.1 μg/ml TLR 2/6 ligand—Malp-, and/or 0.1 μg/ml TLR 4/CD14 ligand—lipopolysaccharide (LPS). Expression of cathelicidin mRNA (Table 3) and protein as well as Human Beta Defensin (HBD) 2 (Table 4) and HBD3 (Table 5) expression in normal human keratinocytes is measured.
# TLR6 = TLR6 gene expression by qPCR in NHEK; type: cell-based, human; conditions: Example 3; 10 nM pimecrolimus, 1 nM 1.25D3
# Description: as §1
# CD14 = CD14 gene expression by qPCR in NHEK; type: cell-based, human; conditions: for CD14 mRNA expression (Mean): 10 nM pimecrolimus; for CD14 mRNA expression (Means of N = 3): Example 6, 10 nM Pimecrolimus, 1 nM 1,25D3
# Description: as §1, §2, §3
# [2] = system: Staphylococcus aureus ΔmprF; test: Direct co-incubation of Pimecrolimus with S. aureus ΔmprF cultures (OD600); type: cell-based; conditions: for Bacterial growth OD600 (Mean): 10 nM Pimecrolimus co-incubated with S. aureus, no keratinocyte lysate, 37° C.
# Description: To assess the effect of pimecrolimus on the innate immune response of the epidermis against bacteria, cultures of normal human keratinocytes (NHEK) are stimulated with a concentration of 10 nM pimecrolimus, 1 nM 1.25D3 (active 1.25 D-hydroxy calciferol) or their combination. Cells are lysed via sonication 20 minutes in an ice bath, after which cell lysates were mixed with Staphylococcus aureus ΔmprF cultures and incubated at 37° C. Bacterial growth over time is monitored by OD600 (Table 1). To determine if Pimecrolimus alone was able to kill Staphylococcus aureus ΔmprF, Pimecrolimus in a concentration of 10 nM is co-incubated with Staphylococcus aureus ΔmprF cultures and incubated at 37° C. (Table 2). Bacterial growth is monitored by OD600 (*: p<0.05; **: p<0.01; Student's t-test).
# cathelicidin = test: Cathelicidin mRNA expression in normal human keratinocytes (NHEK); type: cell-based; set-up: Cathelicidin mRNA expression (Mean) / Cathelicidin mRNA expression (means): unit not given here; conditions: for Cathelicidin mRNA expression (means): 1 uM tacrolimus, 1 ug/ml CsA, 25ng/ml rapamycin; for Cathelicidin mRNA expression (Means of N = 3): Example 6, 10 nM Pimecrolimus, 1 nM 1,25D3
# Description: as §5, §2
# To assess the effect of pimecrolimus on the innate immune response of the epidermis, cultures of normal human keratinocytes (NHEK) are stimulated with a concentration of 10 nM pimecrolimus, 1 uM tacrolimus, 1 ug/ml CsA, 25ng/ml rapamycin, or a combination of pimecrolimus and rapamycin, each of these with or without 0.1 μg/ml TLR2/6 ligand Malp-2. Cathelicidin mRNA expression is evaluated.
# as §3
# To assess the effect of varying levels of pimecrolimus on the innate immune response of the epidermis, cultures of normal human keratinocytes (NHEK) are stimulated with 0 nM, 5 nM, 10 nM, 20 nM, 30 nM, […], […] and 60 nM concentrations of pimecrolimus. Expression of cathelicidin mRNA expression is measured and evaluated accordingly to the procedures as detailed in Example 2 above.
# as §4
# [3] = Example 4, 1 nM 1.25 D3, 0.1 μg/ml Malp-2 or combination
# [4] = in the presence of low dose 1,25D3 and Malp-2
smiles,measurement,setting,value
"CC[C@@H]1/C=C(\C)C[C@H](C)C[C@H](OC)[C@H]2O[C@@](O)(C(=O)C(=O)N3CCCC[C@H]3C(=O)O[C@H](/C(C)=C/[C@@H]3CC[C@H](Cl)[C@H](OC)C3)[C@H](C)[C@@H](O)CC1=O)[C@H](C)C[C@@H]2OC [Pimecrolimus, pimecrolimus]",TLR2 mRNA expression (Mean),"TLR2; Example 3, 1 nM 1.25D3",1.80
same,TLR2 mRNA expression (Mean),TLR2; [3],0.29
same,TLR2 mRNA expression (Means of N = 3),TLR2; 0 h,1.00
same,TLR2 mRNA expression (Means of N = 3),TLR2; 8 h,0.64
same,TLR2 mRNA expression (Means of N = 3),TLR2; 24 h,1.31
same,TLR2 mRNA expression (Means of N = 3),TLR2; 48 h,1.51
same,TLR2 gene expression (Mean),TLR2; 0.01 nM PIM with 1 nM 1.25D3,0.82
same,TLR2 gene expression (Mean),"TLR2; 0.01 nM PIM, no 1.25D3",0.73
same,TLR2 gene expression (Mean),TLR2; 0.1 nM PIM with 1 nM 1.25D3,0.57
same,TLR2 gene expression (Mean),"TLR2; 0.1 nM PIM, no 1.25D3",0.59
same,TLR2 gene expression (Mean),TLR2; 1 nM PIM with 1 nM 1.25D3,1.07
same,TLR2 gene expression (Mean),"TLR2; 1 nM PIM, no 1.25D3",0.98
same,TLR2 gene expression (Mean),TLR2; 10 nM PIM with 1 nM 1.25D3,3.94
same,TLR2 gene expression (Mean),"TLR2; 10 nM PIM, no 1.25D3",1.80
same,TLR2 expression (in words),TLR2; [4],increasing
same,HBD2 expression (Mean),[1]; with 10 nM Pimecrolimus + 0.1 μg/ml LPS,1.34
same,HBD2 expression (Mean),[1]; with 10 nM Pimecrolimus + 0.1 μg/ml Malp-2,867.92
same,HBD2 expression (Mean),[1]; with 10 nM Pimecrolimus + 1 μg/ml PGN,0.51
same,HBD2 expression (Mean),[1]; with 10 nM Pimecrolimus + 10 μg/ml LTA,1.77
same,HBD2 expression (Mean),"[1]; with 10 nM Pimecrolimus, no TLR ligand (control row)",6.53
same,TLR6 mRNA expression (Mean),TLR6,4.40
same,CD14 mRNA expression (Mean),"CD14; Example 3, 1 nM 1.25D3",2.07
same,CD14 mRNA expression (Mean),CD14; [3],2.07
same,CD14 mRNA expression (Means of N = 3),CD14; 0 h,1.54
same,CD14 mRNA expression (Means of N = 3),CD14; 8 h,1.46
same,CD14 mRNA expression (Means of N = 3),CD14; 24 h,2.10
same,CD14 mRNA expression (Means of N = 3),CD14; 48 h,1.04
same,"Effect on 1,25D3-induced CD14 mRNA expression (in words)",CD14; after 8 hours of treatment,suppressed
same,"Effect on 1,25D3-induced CD14 mRNA expression (in words)",CD14; after 24 hours,enhanced
same,CD14 expression (in words),CD14; [4],increasing
same,Bacterial growth OD600 (Mean),[2]; 0 h,0.3083
same,Bacterial growth OD600 (Mean),[2]; 2 h,0.3387
same,Bacterial growth OD600 (Mean),[2]; 4 h,0.4157
same,Bacterial growth OD600 (Mean),[2]; 5 h,0.4333
same,Bacterial growth OD600 (Mean),[2]; 6 h,0.4227
same,Bacterial growth OD600 (Mean),[2]; 8 h,0.601
same,Direct antimicrobial effect (in words),[2]; summary of Table 2,does not have an antimicrobial effect by itself
same,Cathelicidin mRNA expression (Mean),"cathelicidin; Example 2, with 10 nM Pimecrolimus + 0.1 μg/ml LPS",8.67
same,Cathelicidin mRNA expression (Mean),"cathelicidin; Example 2, with 10 nM Pimecrolimus + 0.1 μg/ml Malp-2",26.08
same,Cathelicidin mRNA expression (Mean),"cathelicidin; Example 2, with 10 nM Pimecrolimus + 1 μg/ml PGN",9.81
same,Cathelicidin mRNA expression (Mean),"cathelicidin; Example 2, with 10 nM Pimecrolimus + 10 μg/ml LTA",18.56
same,Cathelicidin mRNA expression (Mean),"cathelicidin; Example 2, with 10 nM Pimecrolimus, no TLR ligand (control row)",2.64
same,Cathelicidin mRNA expression (Mean),"cathelicidin; Example 4, 10 nM pimecrolimus, 1 nM 1.25 D3, 0.1 μg/ml Malp-2 or combination",22.57
same,Cathelicidin mRNA expression (means),"cathelicidin; Example 5, Experiment 1, with 0.1 μg/ml Malp-2, 10 nM pimecrolimus",2.98
same,Cathelicidin mRNA expression (means),"cathelicidin; Example 5, Experiment 1, without Malp-2, 10 nM pimecrolimus",1.33
same,Cathelicidin mRNA expression (means),"cathelicidin; Example 5, Experiment 2, with 0.1 μg/ml Malp-2, 10 nM pimecrolimus",3.07
same,Cathelicidin mRNA expression (means),"cathelicidin; Example 5, Experiment 2, without Malp-2, 10 nM pimecrolimus",2.40
same,Cathelicidin mRNA expression (Means of N = 3),cathelicidin; 0 h,1.20
same,Cathelicidin mRNA expression (Means of N = 3),cathelicidin; 8 h,1.82
same,Cathelicidin mRNA expression (Means of N = 3),cathelicidin; 24 h,1.75
same,Cathelicidin mRNA expression (Means of N = 3),cathelicidin; 48 h,2.06
same,Concentration at which cathelicidin mRNA expression peaks (bell-shaped dose response),cathelicidin; Example 7,20 nM
same,Cathelicidin mRNA expression (Mean),"cathelicidin; Example 7, 5 nM PIM",1.46
same,Cathelicidin mRNA expression (Mean),"cathelicidin; Example 7, 10 nM Pim",2.26
same,Cathelicidin mRNA expression (Mean),"cathelicidin; Example 7, 20 nM Pim",82.72
same,Cathelicidin mRNA expression (Mean),"cathelicidin; Example 7, 40 nM Pim",3.37
same,Cathelicidin mRNA expression (Mean),"cathelicidin; Example 7, 60 nM Pim",1.78
same,Cathelicidin mRNA expression (Mean),"cathelicidin; Example 8, 0.01 nM PIM with 1 nM 1.25D3, 24 hours",4.56
same,Cathelicidin mRNA expression (Mean),"cathelicidin; Example 8, 0.01 nM PIM, no 1.25D3, 24 hours",1.04
same,Cathelicidin mRNA expression (Mean),"cathelicidin; Example 8, 0.1 nM PIM with 1 nM 1.25D3, 24 hours",4.19
same,Cathelicidin mRNA expression (Mean),"cathelicidin; Example 8, 0.1 nM PIM, no 1.25D3, 24 hours",0.47
same,Cathelicidin mRNA expression (Mean),"cathelicidin; Example 8, 1 nM PIM with 1 nM 1.25D3, 24 hours",10.92
same,Cathelicidin mRNA expression (Mean),"cathelicidin; Example 8, 1 nM PIM, no 1.25D3, 24 hours",1.61
same,Cathelicidin mRNA expression (Mean),"cathelicidin; Example 8, 10 nM PIM with 1 nM 1.25D3, 24 hours",99.45
same,Cathelicidin mRNA expression (Mean),"cathelicidin; Example 8, 10 nM PIM, no 1.25D3, 24 hours",9.81
same,"Increase of cathelicidin mRNA expression, pimecrolimus in conjunction with calciferol versus pimecrolimus alone","cathelicidin; at the 1 nM and 10 nM concentrations of pimecrolimus, 1 nM calciferol",> 2 times
same,Transcript and protein abundance of antimicrobial genes (in words),"cathelicidin; in the presence of Toll 2/6 ligand Malp-2, summary of Tables 3-5 (cathelicidin, HBD2, HBD3)",increases transcript and protein abundance of antimicrobial genes
same,Cathelicidin transcript abundance (in words),cathelicidin; [4],enhances cathelicidin transcript abundance
